{"source": "patent US12161689B2", "about": "“Anti-infective formulations” (NEW MEXICO TECH UNIVERSITY RESEARCH PARK CORPORATION, priority 2018, dated 2024)", "tested_on": "multi-drug resistant Burkholderia cepacia (ATCC 10856)", "assay": "Spot on lawn, MHA plate: killing / diameter of clearance", "assay_type": "cell-based", "conditions": "10 μL spot, 24 to 48 hours at 37° C.", "note": "Where a SMILES comes first, the peptide text is derived from it. Bridges are numbered along the chain shown (N, C = ends). [ ]: non-standard residue; d: D form. The star is where a group is joined. Ileψ(thiazoline)Cys = CC[C@H](C)[C@H](N)C1=N[C@H](C(=O)*)CS1; dOrn = NCCC[C@@H](N)C(=O)O"}
{"smiles": "CC[C@H](C)[C@H](N)C1=N[C@H](C(=O)N[C@@H](CC(C)C)C(=O)N[C@H](CCC(=O)O)C(=O)N[C@H](C(=O)N[C@H]2CCCCNC(=O)[C@H](CC(N)=O)NC(=O)[C@@H](CC(=O)O)NC(=O)[C@H](Cc3cnc[nH]3)NC(=O)[C@@H](Cc3ccccc3)NC(=O)[C@H]([C@@H](C)CC)NC(=O)[C@@H](CCCN)NC2=O)[C@@H](C)CC)CS1", "note": "[Bacitracin] ({Ileψ(thiazoline)Cys}-L[dE]IK[dOrn]I[dF]H[dD]N; lactam 4-C)", "values": [{"measurement": "antibacterial activity", "setting": "B. cepacia (ATCC 10856)", "value": "−"}, {"measurement": "antibacterial activity", "setting": "Burkholderia cepacia ATCC 10856", "value": "−"}]}
